According to patent US9072707B2, “Use of C-terminal domain of IGFBP-5 comprising heparin-binding domain as an angiogenesis inhibitor” (RESEARCH & BUSINESS FOUNDATION SUNGKYUNKWAN UNIVERSITY, priority 2012, dated 2015):

Experiments:
[1] = tested on: TNF-α; assay: RT-PCR analysis of TNF-alpha gene expression in 2774 ovarian cancer cell line; assay type: cell-based
Procedure: (§1) A plasmid (pSecTaq2/Hygro A, Invitrogen) (2 μg/dish (100 mm dish)) that expresses the C-terminal domain (SEQ ID NO: 1), L-domain (SEQ ID NO: 2) and N-terminal domain (SEQ ID NO: 3) of IGFBP-5 was transfected into the 2774 ovarian cancer cell line using Lipofectamine 2000 (Invitrogen). The transfection was performed according to the method provided by Invitrogen.
(§2) At 24 hours after transfection, viable colonies were collected in DMEM (+10% FBS+penicillin and hygromycin) containing hygromycin (500 μg/ml), and then positive colonies were selected by a Western blot method using Myc antibody.
(§3) The […] cell line was treated overnight with various concentrations or 60 μg/ml of the peptides synthesized in Example 4, after which the cell line was additionally treated with fresh peptides for 7 hours. The cell line was treated for a total of 24 hours. Then, the cells were lysed with Trizol (Invitrogen), and RNA was isolated from the cells. cDNA was synthesized from the isolated […] using oligo dT and superscriptase III (Invitrogen), and then subjected to RT-PCR.
(§4) However, the PCR reaction using TNF-a primers was performed for 35 cycles at an annealing temperature of 57° C.

[2] = tested on: VEGF; assay: RT-PCR analysis of VEGF gene expression in 2774 ovarian cancer cell line; assay type: cell-based
Procedure: as §1, §2, §3, §4

[3] = tested on: HUVEC; assay: Tube formation assay on Matrigel; assay type: cell-based, human; details: 60 μg/ml peptide, 24 h pretreatment, 6 h on Matrigel; FIG. 6a
Procedure: In order to examine the influence of each domain peptide of IGFBP-5 on the tube formation of HUVEC cells, HUVEC cells were plated onto a 6-well plate at a density of 1×10^5 cells/well, and then treated with 60 μg/ml of each of the peptides for 24 hours.
Before a tube formation assay, growth factor-reduced Matrigel (BD Bioscience) diluted to 1:2 with PBS was added to a 24-well plate in an amount of 300 μl/well, and then solidified at 37° C. for 1 hour. The HUVEC cells treated with each of the peptides for 24 hours were trypsinized, suspended in 300 μl of EGM medium (diluted to 1:3 with EBM medium) and treated with 60 μg/ml of a fresh peptide, and then the cells were incubated on the prepared Matrigel for 6 hours.

[4] = tested on: IL-6; assay: RT-PCR analysis of IL-6 gene expression in 2774 ovarian cancer cell line; assay type: cell-based
Procedure: as §1, §2, §3, §4

[5] = tested on: HUVEC; assay: Migration (scratch) assay; assay type: cell-based, human; details: 60 μg/ml peptide, 36 h pretreatment, overnight, FIG. 6b
Procedure: In order to examine the influence of each domain peptide of IGFBP-5 on the migration of HUVEC cells, HUVEC cells were seeded onto a 12-well plate at a density of 1×10^5 cells/well, and then treated with 60 μg/ml of each of the peptides for 36 hours. Specifically, the cells were treated with each of the peptides for 7 hours, and then treated overnight with a fresh peptide.
The plate was scratched with a 200-μl micropipette tip, and treated overnight with 60 μg/ml of a fresh peptide, after which the migration of the cells was observed. For this purpose, the cells were photographed under a microscope at 0 hour and the overnight time point. In addition, for a control group, cells were treated with PBS.

[6] = tested on: 2774-GFP cell line; assay: Ovarian cancer animal model, intraperitoneal 2774-GFP cells; assay type: in vivo, nude mouse; details: 30 mg/kg intraperitoneally 8 times at intervals of 2-3 days, FIG. 7
Procedure: Each of 5-week-old nude mouse was intraperitoneally injected with 5×10^6 2774 cells that express GFP.
In this experiment, 8 mice were injected with the BP5-C peptide, and for a control group, 7 mice were injected with PBS.

[7] = tested on: 2774 ovarian cancer cell line; assay: Subcutaneous tumor growth of 2774 cell lines expressing IGFBP-5 truncation mutants; assay type: in vivo, nude mouse; details: nude mice injected subcutaneously with 2774 cells expressing the domain, compared to Vec/2774; FIGS. 2a, 2b
Procedure: A 5-week-old nude mouse subcutaneously injected with 1×10^6 cells that express the truncation mutant of IGFBP-5, and then the tumor volume of the mice was measured at intervals of 3-4 days. In this experiment, two mice were used for each of the cell lines, and each of the cell lines was injected into two points of each mouse. This experiment was repeated three times.

[8] = 2774 cells treated with 60 μg/ml of each peptide, FIG. 5A
[9] = 2774 cells treated with peptide at 30, 60 and 100 μg/ml, FIG. 3A
[10] = 2774 cell line stably expressing the domain, FIG. 1B

Molecule | expression of TNF-α gene [1, 8] | expression of VEGF gene [2, 8] | tube formation of HUVEC [3] | expression of IL-6 gene [4, 8] | migration of HUVEC [5] | expression of TNF-α gene [1, 9] | expression of VEGF gene [2, 9] | tumor volume of collected tumors ([6]; compared to animals injected with PBS) | tumor growth ([6]; compared to control group (PBS)) | expression of IL-6 gene [4, 9] | expression of TNF-a gene [1, 10] | expression of VEGF gene [2, 10] | growth of cancer (tumor volume) [7] | expression of IL-6 gene [4, 10]
BP5-mut: IGFBP-5 201-218 with G203A and Q209A mutations, RKAFYKRKACKPSRGRKR (SEQ ID NO: 5) | inhibited | inhibited | inhibited | inhibited | inhibited |  |  |  |  |  |  |  |  | 
BP2-HBD: heparin-binding domain derived from IGFBP-2, amino acids 171-188, KHHLGLEEPKKLRPPPAR (SEQ ID NO: 6) [reference compound] | no effect | no effect | no influence | no effect | did not inhibit |  |  |  |  |  |  |  |  | 
BP5-C: amino acids 201-218 of IGFBP-5, RKGFYKRKQCKPSRGRKR (SEQ ID NO: 4) | inhibited | inhibited | inhibited | inhibited | inhibited | inhibited | inhibited | significantly reduced | significantly inhibited | inhibited |  |  |  | 
BP2-C: C-terminal domain peptide of IGFBP-2 including IGF-1-binding domain, amino acids 228-245, KHGLYNLKQCKMSLNGQR (SEQ ID NO: 7) [reference compound] | no effect | no effect | no influence | no effect | did not inhibit |  |  |  |  |  |  |  |  | 
C-terminal domain: domain consisting of amino acids 169-252 of IGFBP-5 (SEQ ID NO: 1), stably expressed in 2774 cells (C/2774) (protein) QGPCRRHMEASLQELKASPRMVPRAVYLPNCDRKGFYKRKQCKPSRGRKRGICWCVDKYGMKLPGMEYVDGDFQCHTFDSSNVE |  |  |  |  |  |  |  |  |  |  | significantly inhibited | significantly inhibited | significantly inhibited | significantly inhibited
